Experimental data reported in US20210371385A1, “POLYMORPHIC AND AMORPHOUS FORMS OF ISOQUINOLINONE AND METHODS OF USE THEREOF” (Sojournix, Inc., priority 2018, published 2021).
Values after ≈ are worked out from the molar mass of the structure shown. Like-named read-outs stand apart in the source and are kept apart here.

Experiments:
[1] = Absorption of solid compound dosed orally in rats; format: in vivo, Sprague Dawley rats; conditions: for bioavailability: Sprague Dawley, rat, in vivo, oral microsuspension, read-out: Absolute bioavailability
Method: The possibility of dosing SJB-01 orally as a solid was explored in rats, as a means to evaluate the developability of the compound. Clinical relevant doses (1, 5 and 10 mg/kg) were administered to rats as microsuspensions. Furthermore, to explore the role of particle size, a suspension (5 mg/kg) was administered as well for comparison.

[2] = Log P/D7.4 by shake flask method, octanol-buffer; format: physicochemical; conditions: pH 7.4, octanol-buffer two phase system
Method: The Log P/D7.4 value was determined by the shake flask method in an octanol-buffer two phase systems.

[3] = Log P/D determination, pH-metric titration with 1-octanol; format: physicochemical
Method: Log P and log D were determined for SJB-01 free base using 1-octanol as the partition solvent (Table 2). Log P was experimentally determined to be 4.73 which is larger than the predicted value for the structure, the corresponding Bjerrum plot is shown in FIG. 6. A log D profile (FIG. 5) was constructed for SJB-01 based on the distribution of the API at a particular pH.
(§1) pKa and log P/D data were collected using Pion PULSE Attain software. The Pion PULSE solutions consisted of using ionic strength adjusted water (0.15 M KCl), 0.5 M HCl and […] which were used for all titrations. Purge gas (argon) was used for HEPES (probe validation), KHP (KOH concentration determination), aqueous potentiometric and log P/D potentiometric titrations.
(§2) The Pion PULSE was equipped with an overhead variable speed stirrer, double junction Ag/AgCl pH probe, UV probe with a 1 cm pathlength, Carl-Zeiss spectrophotometer with 256-bit photodiode array, and a temperature probe. The pH of the instrument can range from 1.8-12.2. The compatible co-solvents are MeOH, EtOH, ACN, DMSO and 1,4-dioxane. pKa measurements were completed by either potentiometric or UV-metric methods. log P/D was measured using water saturated 1-octanol as the partitioning solvent. Data was refined using the Pion PULSE refine software.

[4] = pKa measured by titration (Example 3); format: physicochemical; conditions: measurable detection limit of 2
Method: The pKa value was measured by titration.

[5] = Chemical stability (oxygen, pH, light, PEG 400); format: physicochemical
[6] = in vivo, 140 mg/kg
Method: Formulations for toxicological evaluation of SJB-01 were considered. The highest solubility was obtained with 100% PEG 400 and a mixture of Gelucire and PEG 400. Since a formulation with Gelucire:PEG required increased handling time, including dosing at ˜45° C., 100% PEG 400 was chosen for formulation purpose in the early toxicological evaluation including mini-MTD (maximum tolerated dose) and a 14 days toxicological dosing study. The maximum dose reached was 140 mg/kg-the highest possible dose achievable with PEG 400 as vehicle. […] From a formulation perspective, this can only be done by using Gelucire:PEG as a vehicle, under the assumption that a solution will lead to a higher bioavailability than dosing the compound in a PEG 400 suspension. In the table below, the maximum dose of SJB-01 given on a solubilized form is provided, taking into account the tolerated dose of the vehicle as well.

[7] = pKa determination, co-solvent potentiometric titration (Yasuda-Shedlovsky extrapolation); format: physicochemical; conditions: 25.4 °C, MeOH co-solvent potentiometric, extrapolated to 0% co-solvent
Method: pKa determination and assignment was completed on SJB-01 (FIG. 1). About 2 mg of SJB-01 (100142-1-1) was titrated three times with varying concentrations of MeOH as co-solvent to generate a Yasuda-Shedlovsky plot (L100142-65-4, FIG. 2 and Table 1). Extrapolation of the Yasuda-Shedlovsky plot to 0% co-solvent determined the pKa's (FIG. 3), which are acidic 5.76, basic 3.03. Acidic pKa is in red and basic pKa is in blue.
as §1, §2

[8] = Intrinsic Dissolution Rate (IDR); format: physicochemical; conditions: FeSSIF media, presence of bile components
Method: The Intrinsic Dissolution Rate (IDR) was calculated for a beta polymorph form of SJB-01. A tablet of the compound was pressed and put into a dissolution chamber. It was subsequently measured how fast the substance was dissolved from the surface into the solvent. Initially, the experiment was performed in a standard buffer (0.001 M HCl pH 3.0), reflecting the stomach conditions at fastened state.
Due to the high impact of bile components on solubilisation of SJB-01, IDR was performed in FeSSIF media, reflecting the fed-state in humans.

[9] = Solubility in buffered solutions vs pH at 37 °C (HPLC); format: physicochemical; conditions: thermodynamic from solid, read-out: Solubility at 24 h
Method: Aqueous buffers between pH 1.3 and 7.4 (13 total) were prepared and 3 mL added to about 15 mg of SJB-01 (L100149-44-1, jet-milled). These slurries were stirred on a hot-plate at 37° C. for 24 hours. Sonication and vortexting was employed within the first 2 hours of stirring to ensure thorough mixing and wetting of the solids as there was a clear tendency for them to clump and float at the liquid surface. After sonication and vortexing there was substantial solids suspended in solution (slurry) along with the solids that floated on top. At 24 hours, the samples were collected by syringe filtration of about 2 mL of solution. The first 1 mL of solution that passed through the filter was discarded and the second 0.5-1 mL of solution was used for HPLC analysis. The samples were injected into HPLC without dilution.
SJB-01 (L100149-44-1) was weighed directly into volumetric flasks and filled to volume with ACN:water (6:4 vol.) to build a calibration curve. […] Details for the HPLC method used are given in Table 34; these follow the parameters used for previous dissolution study.

Question: Which bioavailability ([1]; 10 mg/kg) does the source give for `CCNn1c(C)c(C(=O)N[C@H](c2ccccc2)C2CC2)c2cccc(F)c2c1=O` [SJB-01, 2-Ethylamino-8-fluoro-3-methyl-1-oxo-1,2-dihydro-isoquinoline-4-carboxylic acid ((S)-cyclopropyl-phenyl-methyl)-amide] here?
Answer: The bioavailability was ~30%.

Question: What about the bioavailability ([1]; 1 and 5 mg/kg) of the same molecule?
Answer: Its bioavailability is ~20%.

Question: What about the “Bioavailability, comparison of particle size” value ([1]; oral, 5 mg/kg, particle size 10 and 50 μm) of the same molecule?
Answer: The value was “no differences in bioavailability”.

Question: What about the logP [2] of the same molecule?
Answer: The logP was 3.3.

Question: And the logD ([3]; 1-octanol/water, pH 7.4, pH 7.40, 1-octanol, from log D profile, read-out: log D7.40)?
Answer: Its logD is 3.04.

Question: What about the logP ([3]; neutral species, 1-octanol:water, 25.3 °C, pH-metric, three titrations) of the same molecule?
Answer: Its logP is 4.73 ± 0.14.

Question: What about the pKa [4] of the same molecule?
Answer: The pKa was < 2.

Question: And the “Time stable in PEG 400” value ([5]; PEG 400, room temperature, covered from light)?
Answer: Its value is “at least 4 months”.

Question: What about the Compound decomposed ([5]; aqueous solution, extreme light exposure, 24 hr) of the same molecule?
Answer: Its Compound decomposed is 100%.

Question: And the “Stability to oxygen and pH” value ([5]; exposed to oxygen and pH 2, 4, 6, and 7.4)?
Answer: The value was “stable”.

Question: And the Compound left ([5]; solid compound, extreme light exposure, 24 hr)?
Answer: Its Compound left is ~86%.

Question: What about the “Clinical observations at maximum dose reached” value [6] of the same molecule?
Answer: Its value is “no clinical observations”.

Question: What about the “pKa (acidic)” value ([7]; acidic) of the same molecule?
Answer: Its value is 5.76.

Question: What about the pKa ([7]; acidic, read-out: pKa (acidic)) of the same molecule?
Answer: Its pKa is 5.83 ± 0.11.

Question: And the pKa ([7]; basic, read-out: pKa (basic))?
Answer: Its pKa is 3.03 ± 0.11.

Question: And the “IDR in FeSSIF media versus standard buffer” value [8]?
Answer: Its value is “not further increased”.

Question: What about the solubility at 24 h ([9]; Britton-Robinson 0.05M buffer, aqueous buffer, Britton-Robinson 0.05M, initial pH 2.21, 24 h pH 2.22, 37 °C) of the same molecule?
Answer: The solubility at 24 h was 7.9 µg/mL (≈ 20.1 µM).

Question: And the solubility at 24 h ([9]; Britton-Robinson 0.05M buffer, aqueous buffer, Britton-Robinson 0.05M, initial pH 2.85, 24 h pH 2.97, 37 °C)?
Answer: The solubility at 24 h was 7.4 µg/mL (≈ 18.8 µM).

Question: And the solubility at 24 h ([9]; Britton-Robinson 0.05M buffer, aqueous buffer, Britton-Robinson 0.05M, initial pH 4.95, 24 h pH 5.01, 37 °C)?
Answer: The solubility at 24 h was 7.7 µg/mL (≈ 19.6 µM).

Question: And the solubility at 24 h ([9]; Citric acid/NaOH 0.05M buffer, aqueous buffer, Citric acid/NaOH 0.05M, initial pH 2.86, 24 h pH 2.88, 37 °C)?
Answer: The solubility at 24 h was 8.1 µg/mL (≈ 20.6 µM).

Question: What about the solubility at 24 h ([9]; Citric acid/NaOH 0.05M buffer, aqueous buffer, Citric acid/NaOH 0.05M, initial pH 3.82, 24 h pH 3.85, 37 °C) of the same molecule?
Answer: Its solubility at 24 h is 7.5 µg/mL (≈ 19.1 µM).

Question: And the solubility at 24 h ([9]; Citric acid/NaOH 0.05M buffer, pH 4.9, aqueous buffer, Citric acid/NaOH 0.05M, initial pH 4.90, 24 h pH 4.90, 37 °C)?
Answer: The solubility at 24 h was 7.2 µg/mL (≈ 18.3 µM).

Question: And the solubility at 24 h ([9]; HCl/KCl 0.05M buffer, aqueous buffer, HCl/KCl 0.05M, initial pH 2.13, 24 h pH 2.16, 37 °C)?
Answer: The solubility at 24 h was 7.5 µg/mL (≈ 19.1 µM).

Question: And the solubility at 24 h ([9]; HCl/KCl 0.05M buffer, pH 1.3, simulated gastric fluid, HCl/KCl 0.05M, initial pH 1.34, 24 h pH 1.30, 37 °C, jet-milled beta form)?
Answer: The solubility at 24 h was 7.8 µg/mL (≈ 19.8 µM).

Question: And the solubility at 24 h ([9]; KH2PO4/NaOH 0.05M buffer, aqueous buffer, KH2PO4/NaOH 0.05M, initial pH 5.98, 24 h pH 6.04, 37 °C)?
Answer: Its solubility at 24 h is 7.1 µg/mL (≈ 18 µM).

Question: What about the solubility at 24 h ([9]; KH2PO4/NaOH 0.05M buffer, aqueous buffer, KH2PO4/NaOH 0.05M, initial pH 7.46, 24 h pH 7.47, 37 °C) of the same molecule?
Answer: The solubility at 24 h was 6.4 µg/mL (≈ 16.3 µM).

Question: And the solubility at 24 h ([9]; KHP/HCl 0.05M buffer, aqueous buffer, KHP/HCl 0.05M, initial pH 3.18, 24 h pH 3.14, 37 °C)?
Answer: The solubility at 24 h was 9.5 µg/mL (≈ 24.1 µM).

Question: And the solubility at 24 h ([9]; KHP/HCl 0.05M buffer, aqueous buffer, KHP/HCl 0.05M, initial pH 3.89, 24 h pH 3.94, 37 °C)?
Answer: Its solubility at 24 h is 9.8 µg/mL (≈ 24.9 µM).

Question: And the solubility at 24 h ([9]; KHP/NaOH 0.05M buffer, aqueous buffer, KHP/NaOH 0.05M, initial pH 4.96, 24 h pH 4.99, 37 °C)?
Answer: The solubility at 24 h was 8.3 µg/mL (≈ 21.1 µM).
